Test results as given in patent US7601333B2, “Use of a tetrapeptide AcSDKP (SEQ ID No. 1) analog resistant to the angiotensin I converting enzyme for measuring glomerular filtration rate in a human or an animal and kit containing same” (Assistance Publique-Hopitaux de Paris, priority 2003, dated 2009).
“And” between values parts separate entries of the source, which are not always exact repeats. Identical values can stand only once. Like-named read-outs stand apart in the source and are kept apart here. Residues, ends and D or L forms follow the SMILES beside them.

How the values were obtained:
[1] = test system: T1, ACE (rat lung); experiment: In vitro degradation in the presence of rat lung ACE; format: in vitro ADME; details: ground rat lung material (rat lung ACE), peptide 100 nM, ground rat lung material 0.1 mg/ml, pH 7.5, read-out: percentage of peptide assayed relative to the control; for remaining at 2 h, 100 nM: T120 min
T1 construct: incubated with ground rat lung material (at 0.1 mg/ml); from tissue; host or cells: rat lung (ground material)
Description: (§1) The peptides (100 nM) were incubated with ground rat lung material (at 0.1 mg/ml) or human converting enzyme (5 mU final concentration) in the presence or absence of captopril (10 μM final concentration) in 0.1 M Tris/HCl buffer+0.3 mM NaCl, pH=7.5. A control comprising only the peptides in the presence of 0.1 M Tris/HCl buffer+0.3 mM NaCl, pH=7.5, was carried out.
(§2) A methanol extraction was carried out in order to stop the reaction. At each time, the concentration of the nondegraded peptide was measured by enzyme immunoassay.
(§3) The results were expressed as percentage of peptide assayed relative to the control for each sample time.

[2] = biological target: human ACE (Homo sapiens, UniProt P12821); experiment: In vitro degradation in the presence of human ACE; format: in vitro ADME
Description: as §1, §2, §3

[3] = test system: human ACE; experiment: In vitro degradation in the presence of human ACE; format: in vitro ADME; details: human converting enzyme (human ACE), peptide 100 nM, human converting enzyme 5 mU, pH 7.5, read-out: percentage of peptide assayed relative to the control; for remaining at 10 min, 100 nM: T10 min; for remaining at 1 h, 100 nM: T60 min; for remaining at 2 h, 100 nM: T120 min; for remaining at 4 h, 100 nM: T240 min; for remaining at 24 h, 100 nM: T1440 min
Description: as §1, §2, §3

[4] = in vivo; details: male, Wistar, rat, plasma, iv
[5] = Plasma and urine pharmacokinetics after I.V. bolus in rats; details: for % excreted: urine; for Renal clearance: summarizing table, i.v. bolus
[6] = with captopril 10 μM, + captopril 10 μM
[7] = Group 3, i.v. bolus, without captopril, 24-48 h, single rats
[8] = Group 3, i.v. bolus, without captopril, mean
[9] = Group 3, i.v. bolus, without captopril, single rats
[10] = Group 4, i.v. bolus, with captopril, 4-24 h, single rats
[11] = Group 4, i.v. bolus, with captopril, 48-72 h, single rats
[12] = Group 4, i.v. bolus, with captopril, mean
[13] = Group 4, i.v. bolus, with captopril, single rats

human ACE (Homo sapiens, UniProt P12821), sequence (P12821 30-1306): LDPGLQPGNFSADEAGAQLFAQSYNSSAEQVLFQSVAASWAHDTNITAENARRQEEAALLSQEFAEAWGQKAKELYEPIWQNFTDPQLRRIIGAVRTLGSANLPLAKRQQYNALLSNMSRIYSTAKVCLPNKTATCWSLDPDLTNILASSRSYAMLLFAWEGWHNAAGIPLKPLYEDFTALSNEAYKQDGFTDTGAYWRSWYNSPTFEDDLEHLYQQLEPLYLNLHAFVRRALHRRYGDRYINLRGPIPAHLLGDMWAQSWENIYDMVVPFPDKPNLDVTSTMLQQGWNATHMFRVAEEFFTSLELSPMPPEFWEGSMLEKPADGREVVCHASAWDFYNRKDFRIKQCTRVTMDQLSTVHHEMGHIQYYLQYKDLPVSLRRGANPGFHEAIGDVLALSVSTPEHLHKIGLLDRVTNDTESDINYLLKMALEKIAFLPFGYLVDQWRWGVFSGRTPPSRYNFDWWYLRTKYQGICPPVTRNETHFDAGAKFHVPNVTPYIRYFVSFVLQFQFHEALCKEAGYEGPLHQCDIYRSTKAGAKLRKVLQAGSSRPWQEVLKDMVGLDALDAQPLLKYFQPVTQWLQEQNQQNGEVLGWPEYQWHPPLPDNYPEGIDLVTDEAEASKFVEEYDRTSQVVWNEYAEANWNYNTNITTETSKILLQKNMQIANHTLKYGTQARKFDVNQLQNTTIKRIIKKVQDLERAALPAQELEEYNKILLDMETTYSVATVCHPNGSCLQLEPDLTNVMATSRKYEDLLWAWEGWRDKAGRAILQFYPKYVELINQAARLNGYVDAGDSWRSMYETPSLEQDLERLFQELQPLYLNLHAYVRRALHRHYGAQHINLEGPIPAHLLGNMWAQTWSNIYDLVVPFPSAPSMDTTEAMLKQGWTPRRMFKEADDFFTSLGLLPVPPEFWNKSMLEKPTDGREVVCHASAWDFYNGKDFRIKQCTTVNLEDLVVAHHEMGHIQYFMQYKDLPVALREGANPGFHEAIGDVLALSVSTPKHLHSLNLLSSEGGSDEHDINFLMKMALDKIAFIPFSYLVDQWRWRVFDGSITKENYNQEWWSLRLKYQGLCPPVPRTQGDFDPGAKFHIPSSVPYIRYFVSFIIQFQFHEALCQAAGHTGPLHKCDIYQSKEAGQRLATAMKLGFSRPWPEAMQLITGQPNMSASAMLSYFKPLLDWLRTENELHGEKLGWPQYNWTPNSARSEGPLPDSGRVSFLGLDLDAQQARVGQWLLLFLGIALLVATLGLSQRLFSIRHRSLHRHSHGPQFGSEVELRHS

CC(=O)N[C@@H](CO)C(=O)N[C@@H](CC(=O)O)C(=O)N[C@@H](CCCCN)C(=O)N1CCC[C@H]1C(N)=O [AcSDKP-NH2, N-acetyl-Ser-Asp-Lys-Pro-NH2] (Ac-SDKP-NH2)
remaining at 2 h, 100 nM [1, 6]: 109%
remaining at 0.5 h, 100 nM ([1]; T30 min, without captopril): 100%
remaining at 1 h, 100 nM ([1]; T60 min, without captopril): 65%
remaining at 2 h, 100 nM ([1]; without captopril): 95%
degradation by ACE of human origin ([2]; in vitro): does not appear to be degraded
concentrations found ([2]; in vitro, relative to control): 100±25%
percentage of peptide assayed relative to the control ([2]; peptide 100 nM, human converting enzyme 5 mU, pH 7.5, T30 min, + captopril 10 μM): 162%
remaining at 10 min, 100 nM [3, 6]: 90%
remaining at 1 h, 100 nM [3, 6]: 78%
remaining at 2 h, 100 nM [3, 6]: 95%
remaining at 4 h, 100 nM [3, 6]: 104%
remaining at 24 h, 100 nM [3, 6]: 117%
remaining at 10 min, 100 nM ([3]; without captopril): 79%
remaining at 0.5 h, 100 nM ([3]; T30 min, without captopril): 100%
remaining at 1 h, 100 nM ([3]; without captopril): 116%
remaining at 2 h, 100 nM ([3]; without captopril): 116%
remaining at 4 h, 100 nM ([3]; without captopril): 107%
remaining at 24 h, 100 nM ([3]; without captopril): 86%
AUC0-inf [4]: 1490 ng·h/mL
Vd [4]: 0.284 L/kg
clearance [4]: 8.1 mL/min/kg
half-life [4]: 23.1 min
level at 5 min [4]: 3400 ng/mL
level at 10 min [4]: 2680 ng/mL
level at 0.25 h [4]: 1720 ng/mL
level at 0.5 h [4]: 1010 ng/mL
level at 1 h [4]: 450 ng/mL
level at 2 h [4]: 82 ng/mL
level at 4 h [4]: 3 ng/mL
AUC0-inf ([4]; 0.82 mg/kg): 1230 ng·h/mL
Vd ([4]; 0.82 mg/kg): 0.338 L/kg
half-life ([4]; 0.82 mg/kg): 23.3 min
level at 5 min ([4]; 0.82 mg/kg): 2830 ng/mL
level at 10 min ([4]; 0.82 mg/kg): 2330 ng/mL
level at 3 h ([4]; 0.82 mg/kg): 16 ng/mL
level at 4 h ([4]; 0.82 mg/kg): 3 ng/mL
AUC0-inf ([4]; 1 mg/kg): 1650 ng·h/mL
Vd ([4]; 1 mg/kg): 0.266 L/kg
clearance ([4]; 1 mg/kg): 8.1 mL/min/kg
Q in urine ([5]; Group 3, i.v. bolus, without captopril, 0-2 h, single rats): 175685.1 ng and 0.0 ng (5×)
Q in urine ([5]; Group 3, i.v. bolus, without captopril, 2-4 h, single rats): 0.0 ng (3×) and 180325.8 ng and 141210.2 ng and 290581.1 ng
Q in urine ([5]; Group 3, i.v. bolus, without captopril, 4-7 h, single rats): 84030.9 ng and 23548.7 ng and 0.0 ng (4×)
Q in urine ([5]; Group 3, i.v. bolus, without captopril, 7-24 h, single rats): 16014.8 ng and 8570.5 ng and 211497.2 ng and 41898.9 ng and 29223.7 ng and 159391.7 ng
Concentration in urine [5, 7]: ILQ
Q in urine [5, 7]: 513.0 ng and 1304.8 ng and 47218.0 ng and 603.6 ng and ILQ and 3161.4 ng
Concentration in plasma ([5]; Group 3, i.v. bolus, without captopril, 5 min, single rats): 2581 ng/mL and 3139 ng/mL and 2865 ng/mL and 2491 ng/mL and 3250 ng/mL and 2663 ng/mL
Concentration in plasma ([5]; Group 3, i.v. bolus, without captopril, 10 min, single rats): 1611 ng/mL and 2288 ng/mL and 2425 ng/mL and 2152 ng/mL and 2918 ng/mL and 2595 ng/mL
Concentration in plasma ([5]; Group 3, i.v. bolus, without captopril, 15 min, single rats): 1655 ng/mL and 985 ng/mL and 2204 ng/mL and 1796 ng/mL and 1930 ng/mL and 1750 ng/mL
Concentration in plasma ([5]; Group 3, i.v. bolus, without captopril, 30 min, single rats): 748 ng/mL and 880 ng/mL and 1317 ng/mL and 1329 ng/mL and 930 ng/mL and 867 ng/mL
Concentration in plasma ([5]; Group 3, i.v. bolus, without captopril, 60 min, single rats): 233 ng/mL and 443 ng/mL and 598 ng/mL and 545 ng/mL and 416 ng/mL and 463 ng/mL
Concentration in plasma ([5]; Group 3, i.v. bolus, without captopril, 120 min, single rats): 47 ng/mL and 45 ng/mL and 163 ng/mL and 118 ng/mL and 48 ng/mL and 69 ng/mL
Concentration in plasma ([5]; Group 3, i.v. bolus, without captopril, 240 min, single rats): ILQ (2×) and 3 ng/ml and 5 ng/ml and 2 ng/ml and 4 ng/ml
Concentration in plasma ([5]; Group 3, i.v. bolus, without captopril, 300 min, single rats): ILQ
CLR [5, 8]: 7.59 mL/min/kg
Ctotal dose/AUC [5, 8]: 8.08 mL/min/kg
AUC0-INF [5, 9]: 87407 ng·min/mL and 125025 ng·min/mL and 111894 ng·min/mL and 101003 ng·min/mL and 96190 ng·min/mL
CLR [5, 9]: 11.8 mL/min/kg and 7.7 mL/min/kg and 6.4 mL/min/kg and 4.9 mL/min/kg and 9.8 mL/min/kg and 5.0 mL/min/kg
Ctotal dose/AUC [5, 9]: 11.3 mL/min/kg and 9 mL/min/kg and 6.2 mL/min/kg and 6.5 mL/min/kg and 8.1 mL/min/kg and 7.2 mL/min/kg
Q in urine total [5, 9]: 276243.9 ng and 213749.7 ng and 258715.2 ng and 183712.7 ng and 319804.8 ng and 162553.1 ng
Vd [5, 9]: 0.27 L/kg and 0.22 L/kg and 0.253 L/kg and 0.256 L/kg and 0.261 L/kg
t½ [5, 9]: 20.7 min (2×) and 24.5 min and 26.8 min and 21.8 min and 25.1 min
% excreted [5, 8]: 92.67%
% excreted [5, 9]: 120.7%
Concentration in urine [5, 10]: 11032 ng/mL
Q in urine [5, 10]: 208504.2 ng and 144361.5 ng and 286064.8 ng and 274157.3 ng and 353834.5 ng
Q in urine ([5]; Group 4, i.v. bolus, with captopril, 24-48 h, single rats): 10737.7 ng and 2183.9 ng and 16360.4 ng and 10087.6 ng and 6728.5 ng
Concentration in urine [5, 11]: ILQ and 11 ng/ml
Q in urine [5, 11]: 758.4 ng and ILQ and 619.3 ng and 4008.3 ng and 0.0 ng
Concentration in plasma ([5]; Group 4, i.v. bolus, with captopril, 5 min, single rats): 3623 ng/mL and 3115 ng/mL and 4099 ng/mL and 2863 ng/mL and 3280 ng/mL
Concentration in plasma ([5]; Group 4, i.v. bolus, with captopril, 10 min, single rats): 1750 ng/mL and 3571 ng/mL and 3075 ng/mL and 2682 ng/mL and 2346 ng/mL
Concentration in plasma ([5]; Group 4, i.v. bolus, with captopril, 15 min, mean): 1874 ng/mL
Concentration in plasma ([5]; Group 4, i.v. bolus, with captopril, 15 min, single rats): 1432 ng/mL and 1978 ng/mL and 2363 ng/mL and 1635 ng/mL and 1960 ng/mL
Concentration in plasma ([5]; Group 4, i.v. bolus, with captopril, 30 min, mean): 1213 ng/mL
Concentration in plasma ([5]; Group 4, i.v. bolus, with captopril, 30 min, single rats): 1128 ng/mL and 891 ng/mL and 1173 ng/mL and 889 ng/mL and 1986 ng/mL
Concentration in plasma ([5]; Group 4, i.v. bolus, with captopril, 60 min, mean): 453 ng/mL
Concentration in plasma ([5]; Group 4, i.v. bolus, with captopril, 60 min, single rats): 312 ng/mL and 338 ng/mL and 346 ng/mL and 357 ng/mL and 910 ng/mL
Concentration in plasma ([5]; Group 4, i.v. bolus, with captopril, 120 min, mean): 74 ng/mL
Concentration in plasma ([5]; Group 4, i.v. bolus, with captopril, 120 min, single rats): 31 ng/mL and 63 ng/mL and 64 ng/mL and 73 ng/mL and 140 ng/mL
Concentration in plasma ([5]; Group 4, i.v. bolus, with captopril, 180 min, mean): 15 ng/mL
Concentration in plasma ([5]; Group 4, i.v. bolus, with captopril, 180 min, single rats): 7 ng/mL and 11 ng/mL and 18 ng/mL and 16 ng/mL and 23 ng/mL
Concentration in plasma ([5]; Group 4, i.v. bolus, with captopril, 240 min, single rats): 2 ng/ml (2×) and 3 ng/ml (3×)
Concentration in plasma ([5]; Group 4, i.v. bolus, with captopril, 300 min, mean): 0 ng/mL
Concentration in plasma ([5]; Group 4, i.v. bolus, with captopril, 300 min, single rats): ILQ (4×) and 0 ng/ml
AUC0-INF [5, 12]: 110097 ng·min/mL
CLR [5, 12]: 8.03 mL/min/kg
Ctotal dose/AUC [5, 12]: 8.06 mL/min/kg
Vd [5, 12]: 0.269 L/kg
AUC0-INF [5, 13]: 100543 ng·min/mL and 114983 ng·min/mL and 92278 ng·min/mL and 153339 ng·min/mL
CLR [5, 13]: 8.2 mL/min/kg and 4.7 mL/min/kg and 9.1 mL/min/kg and 10.6 mL/min/kg and 7.6 mL/min/kg
Ctotal dose/AUC [5, 13]: 9.0 mL/min/kg and 6.9 mL/min/kg and 7.8 mL/min/kg and 9.4 mL/min/kg and 7.2 mL/min/kg
Q in urine total [5, 13]: 220000 ng and 146545.0 ng and 303045 ng and 288253 ng and 360563 ng
Vd [5, 13]: 0.23 L/kg and 0.26 L/kg and 0.327 L/kg and 0.242 L/kg
t½ [5, 13]: 21.9 min and 23.0 min and 24.1 min
% excreted [5, 12]: 98.76%
GFR measured after administration, difference between the groups of rats ([5]; rats): does not differ significantly
degradation in vivo by ACE or other enzyme systems ([5]; rats): not degraded in vivo
excretion in the urine ([5]; rats): completely excreted in the urine without being reabsorbed or secreted
mean AUC of group without captopril less than group with captopril ([5]; rats, mean injected dose 11% higher with captopril): approximately 10%
Renal clearance ([5]; rats, with captopril): 8.0 mL/min/kg
Renal clearance ([5]; rats, without captopril): 7.6 mL/min/kg
